MIC data for two compounds are collected here from patent US8097628B2, “Compounds” (Glaxo Group Limited, priority 2008, dated 2012).

Values after ≈ are worked out from the molar mass of the structure shown.

Experiment [1] relates to E. coli 120 AcrAB-. Kind of experiment: Antimicrobial Activity Assay, whole-cell broth microdilution (CLSI M7-A7). The note with it: Escherichia coli, read-out: lowest MIC. Type of experiment: cell-based. How it is done: Whole-cell antimicrobial activity was determined by broth microdilution using the Clinical Laboratory Standards Institute (CLSI) recommended procedure, Document M7-A7, “Methods for Dilution Susceptibility Tests for Bacteria that Grow Aerobically”.
In addition, compounds were evaluated against a panel of Gram-negative organisms including Haemophilus influenzae, Moraxella catarrhalis, Escherichia coli,
The minimum inhibitory concentration (MIC) was determined as the lowest concentration of compound that inhibited visible growth. A mirror reader was used to assist in determining the MIC endpoint.

Experiment [2] relates to Mycobacterium tuberculosis H37Rv. Kind of experiment: Mycobacterium tuberculosis H37Rv Inhibition Assay. The note with it: ATCC 25618 / H37Rv, H37Rv strain (ATCC25618), Middlebrook 7H9, resazurin fluorescence, read-out: MtB MIC. Type of experiment: cell-based.

For the compound `Cc1cc(CNC2CCN(C[C@@H]3Cn4c(=O)ccc5ccc(=O)n3c54)CC2)cnc1C#N` [Example 32, 5-{[(1-{[(1R)-4,9-dioxo-1,2-dihydro-4H,9H-imidazo[1,2,3-ij]-1,8-naphthyridin-1-yl]methyl}-4-piperidinyl)amino]methyl}-3-methyl-2-pyridinecarbonitrile], the figures for the MIC in experiment [1] and in experiment [2] were 4 µg/mL (≈ 9.29 µM) and 0.538 µg/mL (≈ 1.25 µM), respectively.

For the compound `Cc1ccc(CNC2CCN(CC3Cn4c(=O)ccc5ncc(=O)n3c54)CC2)cc1C` (stereo not drawn) [Example 25, 2-[(4-{[(3,4-dimethylphenyl)methyl]amino}-1-piperidinyl)methyl]-1,2-dihydro-3H,8H-2a,5,8a-triazaacenaphthylene-3,8-dione], the MIC in experiment [2] was determined as 0.262 µg/mL (≈ 0.625 µM).

The MIC is the lowest concentration found to suppress growth.
